Data set [1] deals with TRPA1 agonist-induced ear edema. Briefly: Topical PD model: AITC (TRPA1 agonist)-induced ear edema. The class given is in vivo, mouse. To be noted: topical 1% or 3% in acetone, 1 h before 6% AITC, measured during 6 hours. The protocol:
Test antagonists B to D were formulated at 1% or 3% in an acetone vehicle, applied to the mouse ear skin (10 μl/ear both faces) and left for 1 hour. Then, 10 μl of a 6% solution of allyl isothiocyanate (AITC) in acetone (vehicle 001) was applied to the same location, and ear thickness was measured at TO, 30 min, 1 h, 2 h, 4 h and 6 h. A topical pharmacodynamics (PD) model was designed in mouse, in which test antagonists B to D were formulated at 1% or 3% in an acetone vehicle, applied to the ear skin and left for 1 hour. After this time, a 6% solution of allyl isothiocyanate (AITC), a TRPA1 agonist, in acetone (vehicle 001) was then applied to the same location and ear edema (via the ear thickness) was measured during 6 hours.

The target in a further data set is T1, hTRPV3 (Homo sapiens, UniProt Q8NET8).
T1 sequence (Q8NET8 1-790): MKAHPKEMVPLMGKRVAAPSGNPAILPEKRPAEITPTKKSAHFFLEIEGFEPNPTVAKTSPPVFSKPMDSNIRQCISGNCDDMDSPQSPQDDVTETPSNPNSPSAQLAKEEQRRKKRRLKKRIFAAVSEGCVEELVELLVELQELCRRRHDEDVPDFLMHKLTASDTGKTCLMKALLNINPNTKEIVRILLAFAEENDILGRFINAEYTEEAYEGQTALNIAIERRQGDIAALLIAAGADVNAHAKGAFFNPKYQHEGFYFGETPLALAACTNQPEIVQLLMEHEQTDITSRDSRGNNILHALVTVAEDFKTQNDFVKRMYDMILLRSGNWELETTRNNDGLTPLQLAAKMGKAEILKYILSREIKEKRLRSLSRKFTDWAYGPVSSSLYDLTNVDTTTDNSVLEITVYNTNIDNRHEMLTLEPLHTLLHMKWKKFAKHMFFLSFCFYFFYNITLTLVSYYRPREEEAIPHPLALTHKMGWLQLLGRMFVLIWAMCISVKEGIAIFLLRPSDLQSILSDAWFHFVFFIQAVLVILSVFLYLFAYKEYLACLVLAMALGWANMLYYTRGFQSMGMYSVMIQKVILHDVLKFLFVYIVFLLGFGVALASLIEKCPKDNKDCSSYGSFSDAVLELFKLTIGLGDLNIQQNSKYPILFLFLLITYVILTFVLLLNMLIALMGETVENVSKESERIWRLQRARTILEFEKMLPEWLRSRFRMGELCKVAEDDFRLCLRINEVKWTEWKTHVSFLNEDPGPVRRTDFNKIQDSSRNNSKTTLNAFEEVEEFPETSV
To be noted: unit inferred; cited from earlier work.

The test system of another data set is mouse AD-patch model. Briefly: AD-patch model (DERP epicutaneous sensitization). To be noted: topical 1% in acetone, days 44, 47 and 50; for epidermis thickness, change / inflammatory scores, change: day 51 histology; for TEWL-increase, change: measured day 51. The data set is classed as in vivo. The protocol:
Female Balb/c mice were treated with Dermatophagoïdes pteronyssinus (DERP) allergen in 3 cycles of epicutaneous sensitization (patch) on abdominal skin with 2 patches applied twice weekly followed by 2 weeks of rest, during 7 weeks. Antagonists B or D were formulated at 1% in an acetone vehicle, applied to the sensitized-skin 2 hours before DERP-patches installation. Topical treatments with antagonists or a corticosteroid (used as a control) were only performed 3 times in the 3rd and last week of sensitization (at days 44, 47 and 50).
TEWL is measured the last day (Day 51) according to the protocol of FIG. 2.
On day 51, animals are sacrificed and skin is removed and fixed in formalin followed by embedment in paraffin, sectioning and staining with hematoxylin and eosin. Epidermis thickness is measured by averaging the values of measurements of five independent fields of view.
On day 51, animals are sacrificed and skin is removed and fixed in formalin followed by embedment in paraffin, sectioning and staining with hematoxylin and eosin. Inflammation score is quantified by averaging the values of 10 random fields of view per sample, scored for inflammation with a gradient (semi-quantitative scoring from 0 to 5).
At day 51, gene expression of IL4 cytokine is quantified after RNA extraction from skin, RNA retro transcription and PCR using the TaqMan® Universal MasterMix of Applied Biosystem. cDNA of mice of group Vehicle 001 are used as comparator.
At day 51, gene expression of TSLP cytokine is quantified after RNA extraction from skin, RNA retro transcription and PCR using the TaqMan® Universal MasterMix of Applied Biosystem. cDNA of mice of group Vehicle 001 are used as comparator.
AD inflammatory response was induced by epicutaneous sensitization with patches soaked with 100 μg of allergen in sterile saline (Dermatophagoïdes pteronyssinus or DERP) or with vehicle applied on abdominal skin 24 h after shaving and left on for three 1-wk periods (with patch renewal at midweek), with a 2-wk interval between applications. The presence of the patches and of a transparent occlusive dressing above, prevented licking, biting and scratching from mouse, therefore the inflammatory response in this model is not due to the scratch-itch cycle.
Antagonists B or D were formulated at 1% in an acetone vehicle, applied to the sensitized-skin 2 hours before DERP-patches installation. Topical treatments with antagonists or a corticosteroid (used as a control) were only performed 3 times in the 3rd and last week of sensitization (at days 44, 47 and 50).
At the time of the last patch removal (day 51), skin samples and blood were collected.
Skin was collected for histological, immunohistological analyses and real-time PCR after RNA extraction. Ig (IgE, and specific IgG) concentrations in serum were measured by ELISA

The subject of data set [2] is imiquimod-induced psoriasiform skin inflammation. Briefly: Imiquimod (Aldara) psoriasiform model. The class given is in vivo, mouse. To be noted: topical 1% in PG/EtOH twice daily, day 8. The protocol: The treatment protocol consists of a daily topical application of Aldara (3.18 mg of imiquimod) for 7 days on the shaved back skin of Balb/c mice. Compound C was dissolved in PG/EtOH at 1% and was applied twice daily 2 h before and 6 h after Aldara treatment. Corticosteroid was dissolved in acetone (Vehicle 001) at 0.01% and applied only 2 h before Aldara treatment. Epidermis thickness is then measured at day 8 according to the protocol of FIG. 3. […] Indeed, it induces inflamed scaly skin lesions resembling psoriasis plaques. […] IMQ induced epidermal expression of IL-23, IL-17A, and IL-17F, as well as an increase in splenic Th17 cells (J Immunol. 2009 May 1; 182(9):5836-45). Mice received a daily topical dose of 63.5 mg (14 μl) of commercially available IMQ cream (5%) (Aldara; 3M Pharmaceuticals) on the shaved back skin for 7 consecutive days.

The conditions of data set [3]: cited from earlier work.
In the next data set the test system is pain models. To be noted: cited from earlier work.
The next data set deals with hTRPA1 (Homo sapiens, UniProt O75762). To be noted: value in μM; cited from earlier work.
Another data set concerns the target rTRPA1 (Rattus norvegicus, UniProt Q6RI86). To be noted: cited from earlier work.

Sequence of hTRPA1 (O75762 whole entry): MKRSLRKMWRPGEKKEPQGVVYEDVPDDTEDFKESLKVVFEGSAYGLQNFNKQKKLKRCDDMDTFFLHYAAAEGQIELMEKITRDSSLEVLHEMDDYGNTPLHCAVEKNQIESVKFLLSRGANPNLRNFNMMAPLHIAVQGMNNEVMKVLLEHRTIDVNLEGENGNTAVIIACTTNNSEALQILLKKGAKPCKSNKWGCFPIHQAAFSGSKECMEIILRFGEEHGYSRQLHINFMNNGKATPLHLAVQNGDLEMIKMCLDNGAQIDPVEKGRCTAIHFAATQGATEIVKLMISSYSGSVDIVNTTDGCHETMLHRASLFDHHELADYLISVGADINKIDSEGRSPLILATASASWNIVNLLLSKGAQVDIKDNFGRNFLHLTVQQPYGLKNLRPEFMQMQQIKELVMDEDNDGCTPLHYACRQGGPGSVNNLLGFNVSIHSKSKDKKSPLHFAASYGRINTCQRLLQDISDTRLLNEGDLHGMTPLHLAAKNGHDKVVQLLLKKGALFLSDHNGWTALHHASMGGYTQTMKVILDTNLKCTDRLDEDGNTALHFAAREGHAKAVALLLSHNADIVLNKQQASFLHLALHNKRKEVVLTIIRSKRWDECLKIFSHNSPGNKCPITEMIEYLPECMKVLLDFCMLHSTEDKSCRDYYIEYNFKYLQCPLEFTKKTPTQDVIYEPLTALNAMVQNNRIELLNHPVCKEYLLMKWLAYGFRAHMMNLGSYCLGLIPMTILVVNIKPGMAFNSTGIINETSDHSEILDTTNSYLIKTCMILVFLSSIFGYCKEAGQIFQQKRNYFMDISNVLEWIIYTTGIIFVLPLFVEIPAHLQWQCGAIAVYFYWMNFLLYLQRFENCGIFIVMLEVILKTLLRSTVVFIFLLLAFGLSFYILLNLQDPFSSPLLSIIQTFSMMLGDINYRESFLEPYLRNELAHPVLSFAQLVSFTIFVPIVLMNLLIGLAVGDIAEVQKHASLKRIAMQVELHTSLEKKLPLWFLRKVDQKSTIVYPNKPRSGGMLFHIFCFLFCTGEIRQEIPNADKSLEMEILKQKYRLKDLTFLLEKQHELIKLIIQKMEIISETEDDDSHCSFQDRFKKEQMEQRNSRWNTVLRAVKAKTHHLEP
Sequence of rTRPA1 (Q6RI86 whole entry): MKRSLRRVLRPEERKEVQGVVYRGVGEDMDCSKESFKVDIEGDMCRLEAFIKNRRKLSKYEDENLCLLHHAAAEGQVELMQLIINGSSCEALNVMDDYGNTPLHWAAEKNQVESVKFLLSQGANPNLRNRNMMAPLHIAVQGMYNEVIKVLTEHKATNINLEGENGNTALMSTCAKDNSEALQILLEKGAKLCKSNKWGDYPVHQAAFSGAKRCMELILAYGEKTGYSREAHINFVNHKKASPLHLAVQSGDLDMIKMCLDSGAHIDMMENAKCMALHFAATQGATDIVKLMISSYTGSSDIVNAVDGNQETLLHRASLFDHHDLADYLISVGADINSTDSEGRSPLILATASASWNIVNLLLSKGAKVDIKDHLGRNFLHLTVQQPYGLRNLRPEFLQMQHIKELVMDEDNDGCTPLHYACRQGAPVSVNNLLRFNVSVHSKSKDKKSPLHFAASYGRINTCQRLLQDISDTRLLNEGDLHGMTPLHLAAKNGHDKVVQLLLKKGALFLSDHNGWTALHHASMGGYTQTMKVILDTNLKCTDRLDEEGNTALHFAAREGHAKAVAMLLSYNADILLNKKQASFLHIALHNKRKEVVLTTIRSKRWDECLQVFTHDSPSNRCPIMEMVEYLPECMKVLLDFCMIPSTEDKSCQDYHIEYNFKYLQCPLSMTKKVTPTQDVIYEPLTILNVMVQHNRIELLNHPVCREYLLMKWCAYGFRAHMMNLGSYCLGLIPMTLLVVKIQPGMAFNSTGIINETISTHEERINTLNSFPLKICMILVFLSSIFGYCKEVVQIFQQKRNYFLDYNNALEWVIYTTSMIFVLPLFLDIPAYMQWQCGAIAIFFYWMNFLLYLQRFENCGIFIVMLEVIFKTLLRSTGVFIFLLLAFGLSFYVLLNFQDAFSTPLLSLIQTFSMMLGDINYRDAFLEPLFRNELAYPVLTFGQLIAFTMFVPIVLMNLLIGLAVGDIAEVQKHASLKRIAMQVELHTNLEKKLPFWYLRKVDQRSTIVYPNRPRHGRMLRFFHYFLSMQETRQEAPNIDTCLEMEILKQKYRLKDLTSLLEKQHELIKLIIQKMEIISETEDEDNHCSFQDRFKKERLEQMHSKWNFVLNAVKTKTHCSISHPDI

As usually defined, the IC50 is the point on the concentration scale where inhibition reaches its midpoint. Turning to `Cc1cc2[nH]ncc2cc1-c1ccccc1C(F)(F)F` [compound B], in data set [1], the “TRPA1 agonist-induced ear edema (ear thickness)” value (shortened to “TRPA1 agonist-induced ear edema”) is reported as “decreased”. Besides, the IC50 at hTRPV3 is more than 30 µM. Besides, in the data set with mouse AD-patch model, the “epidermis thickness, change” value is given as −32%; the “inflammatory scores, change” value is −27%; the “TEWL-increase, change” value is on record as −54%.
Turning to `FC(F)(F)c1ccccc1-c1cc2cn[nH]c2cc1OCC1CC1` [compound C], the “TRPA1 agonist-induced ear edema” value in data set [1] is “decreased”. Besides, in data set [2], the “IL-17 production by yO T cells (IL17f mRNA)” value is on record as “did not significantly reduce” and the “imiquimod-induced epidermis thickness increase” value is “did not significantly reduce”. Also, in data set [3], the “oral bioavailability described in rat” value is listed as “Low oral”. For the same molecule, in the data set on pain models (ip), the “Efficacy described in pain model (ip)” value is “Efficacy”. Also, the IC50 on hTRPV3 is more than 30 µM.
For the molecule `CCC(C)c1ccc(NC(=O)Cn2cnc3c2c(=O)n(C)c(=O)n3C)cc1` (stereo not drawn) [compound D, reference compound], the “TRPA1 agonist-induced ear edema” value in data set [1] was “decreased”. Further, the IC50 at hTRPA1 was 14 to 18 µM. For the same molecule, on rTRPA1, the IC50 was 0.23 µM. The “Efficacy described in pain models in rat” value in the data set on pain models (rat) was “Efficacy”. In the data set with mouse AD-patch model, the “epidermis thickness, change” value is listed as −26%; the “inflammatory scores, change” value is −32%; the “TEWL-increase, change” value was −60%.

(Values after patent US20200390774A1, “TRPA1 ANTAGONISTS FOR USE IN THE TREATMENT OF ATOPIC DERMATITIS” (GALDERMA RESEARCH & DEVELOPMENT, priority 2016, published 2020).)
